Laboratory results taken from paper PMC9887155, “Kinetics of cone specific G-protein signaling in avian photoreceptor cells” (Frontiers in Molecular Neuroscience, 2023).
“Also recorded” adds a separate entry of the source. Ends that are not written are not given here.

Tests used:
Gtα/Giα chimera = assay: FRET interaction of dansylated peptides with Gtα/Giα in solution; type: binding, European robin (Erithacus rubecula); settings: excitation 280 nm; for decrease of fluorescence emission in the presence of Gtα/Giα: FRET, dansylated peptide and Gtα/Giα each 16.7 μM, GDP 10 μM, incubated on ice in the dark 30 min, pH 7.4; for fluorescence emission maximum: dansylated peptide 16.7 μM, 80 mM Hepes pH 7.4, 40 mM KCl, 150 mM NaCl, 10 mM MgCl2
Protocol: Interaction of the Gtα/Giα chimera with peptide LWO2 and the control peptide LWO2-sc was tested by Förster resonance energy transfer (FRET) measurements. We designed an experiment using fluorescence excitation at 280 nm of endogenous Trp residues in Gtα/Giα and peptide and emission of Trp fluorescence at 334 nm that excited the fluorescence dye 5-Dimethylamino-1-naphthalinsulfonyl chloride (dansyl chloride). The emission spectrum of dansyl chloride was recorded between 400 and 550 nm. For this purpose, we coupled dansyl chloride to free amino groups in LWO2 and LWO2-sc. Peptides were solved in H20 bidest (1 mg/ml) and 66 μl of a peptide solution were mixed with 50 μl borat buffer (0.1 M, pH 9.5). Twenty-five μL dansyl chloride (1 mg/ml in acetone) were added and the solutions were incubated at room temperature for 5 h in darkness. Afterwards, we separated non-reacted dansyl chloride, non-reacted peptides and covalently labeled LWO2 or LWO2-sc by reversed phase liquid chromatography (HPLC) using a LiChrospher® 100 RP-18 (5 μm) column (Merck, Germany) in a Hitachi Primaide HPLC system. The column was equilibrated in 0.1% trifluoro-acetic acid (v/v) in H2O bidest. Separation was achieved by applying a gradient from 0.1% trifluoro-acetic acid (v/v) in H2O bidest to 100% acetonitrile with 0.1% trifluoro-acetic acid (v/v) in 55 min. Peaks were detected at 280 nm and the area was used to calculate the coupling yield that was at 84–97% for both peptides. FRET measurements employing the FRET pair intrinsic tryptophan and attached dansyl were performed with a fluorescence spectrometer from photon Technology International. The basic operation principle was essentially as described before ([Behnen et al., 2009]; [Scholten and Koch, 2011]) using the following modifications. Shortly before recording the spectrum, the dansylated LWO2 (or LWO2-sc) containing fraction of the HPLC elution was diluted in fluorescence buffer (80 mM Hepes pH 7.4, 40 mM KCl, 150 mM NaCl, 10 mM MgCl2) at a final concentration of 16.7 μM. After adding the G protein, the mixtures were incubated on ice in the dark for 30 min. During the measurements with the Gtα/Giα, it was present in GDP-bound conformation ([GDP] = 10 μM). The excitation wavelength was set to 280 nm and the emission spectrum was recorded from 400 to 550 nm. Recording and analysis of the data was performed using Photon Technology International software package FELIX32.

[1] = system: Gtα/Giα chimera (cone specific G protein α-subunit); assay: SPR interaction of LWO peptides with immobilized Gtα/Giα chimera; type: binding, European robin (Erithacus rubecula); settings: for binding to Gtα/Giα (qualitative): immobilized Gtα/Giα, pH 7.4
Protocol: The peptides representing the cytoplasmic loops of LWO (Figure 1) were purchased from Genscript (Netherlands). Sequences of the peptides were deduced from genetic sequences of the European robin genome ([Dunn et al., 2021]). Two control peptides were ordered containing scrambled sequences of LWO2 and LWO3 assigned as LWO2-sc and LWO3-sc, respectively (Table 1). To the N-terminus of each peptide, a linker (CGAGA or CGAGAG) was added to allow for specific covalent coupling via cysteine. All peptides were ordered to a purity of >90% and contained no further N-terminal modifications. The C-terminus of peptides LWO-1-3 were amidated to simulate a continuation of the peptide chain, while LWO-4 was left unmodified to represent the opsin C-terminus. Quality control by LC–MS was performed by Genscript, and concentrations of the peptides were confirmed by UV–vis measurements.
We used a Gtα/Giα chimera to allow functional expression in E. coli according to previous attempts with bovine Gtα ([Skiba et al., 1996]). Cloning of the Gtα variants was performed by PCR mutagenesis of the plasmid described in [Görtemaker et al. (2022)]. In short, the construct contained an N-terminal 6x histidine tag and SUMO (Small Ubiquitin like MOdifier) protein (for metal affinity purification and subsequent tag cleavage) followed by the Gtα chimera. Truncation of 3 and 6 amino acids was performed using the primers 1 and 2 and 1 and 3, respectively. Sequences are available in Supplementary Table S1. The truncated variants were expressed following the same protocol as the full-length protein.
Purification of the Gtα/Giα chimera was performed as exactly described previously ([Görtemaker et al., 2022]). We used the same procedure for purification of the truncated Gtα variants, but we excluded the final size exclusion chromatography. Protein samples were analyzed by standard analytical techniques such as sodium dodecyl-sulfate polyacrylamide gel electrophoresis (SDS-PAGE) and protein quantification according to established procedures in the laboratory ([Elbers et al., 2018]).
Surface plasmon resonance (SPR) measurements were performed on a Biacore 3,000 (GE Healthcare now Cytiva). We followed the general operation principle that had been described before ([Koch, 2000]; [Komolov et al., 2009]). In the present work, we immobilized the non-myristoylated Gtα/Giα chimera or its truncated variants using CM5 sensor chips (GE Healthcare) for all applications exactly as previously described ([Görtemaker et al., 2022]). Immobilization densities of Gtα/Giα were 2.6–3.4 ng/mm^2. The truncated variants Gt-3AA and Gt-6AA bound to the senor chip surface at densities of 3.1–4.2 ng/mm^2. First, we studied the interaction processes by injection of peptides representing the cytoplasmic regions in LWO (Table 1). Two peptides made from the amino acids present in LWO2 and LWO3, but in scrambled order (Table 1), served as controls. We injected different concentrations (10, 50, 100, and 200 nM or alternatively: 10, 25, 45, 55, 75, and 100 nM) at a flow rate of either 25 μl/min or 50 μl/min in SPR running buffer (10 mM HEPES/NaOH, pH 7.4, 150 mM NaCl, 10 mM MgCl2, 0.005% Tween-20, 3.4 mM EDTA). In addition, we coated control surfaces with ubiquitin-like-protease 1 as previously described ([Görtemaker et al., 2022]). For kinetic investigation of LWO2 binding to Gtα/Giα, we injected different peptide concentrations in random order. Regeneration of the surface was performed with a basic-detergent cocktail adopted from [Andersson et al. (1999)] containing final concentrations of 12.5 mM of ethanolamine, Na2PO4, piperazine, and glycine set to a pH of 11.75, as well as containing 0.2% sodium dodecyl sulfate. Despite the relatively harsh conditions, regeneration was judged to be slightly incomplete. […] With the conditions used, reproducible data was still obtained. Sensorgrams were evaluated by nonlinear curve fitting applying the global fitting approach (BIAevaluation software 4.1, GE Healthcare). […]

In the case of CGAGA-FRVKDGWINPGKFEVWCKF [LWO2-sc], the “fluorescence emission of label-free peptide (control)” value (Gtα/Giα chimera; label-free peptide alone or with Gtα/Giα) is reported as “No fluorescence emission was also observed” and the “binding to Gtα/Giα (qualitative)” value ([1]; peptide 100 nM) is reported as “slight decrease in resonance units indicating no binding signal”.

For “CGAGA-GSKSQRARAEQVETAQAKAEISVEK [LWO3-sc]”, the “binding to Gtα/Giα (qualitative)” value ([1]; peptide 100 nM) was “did not indicate a binding process”.

In the case of “CGAGA-TAKFKKLRHPLNWI [LWO1, peptide representing a cytoplasmic loop of European robin long wavelength opsin]”, the “binding to Gtα/Giα (qualitative)” value ([1]; peptide 100 nM) is reported as “did not indicate a binding process”.

For “CGAGAG-AIRAVAAQQKESESTQKAEKEVSR [LWO3, peptide representing the third cytoplasmic loop of European robin LWO]”, the “binding to Gtα/Giα (qualitative)” value ([1]; peptide 100 nM) was “slight decrease in RU and a kind of recovery phase; also recorded: did not detect any interaction”, the “positive response during subsequent buffer flow” value ([1]; peptide 100 nM, buffer flow after injection, decreased over time) was “ca. 10 RU” and the “binding to Gtα/Giα (qualitative), 200 nM” value ([1]; peptide 200 nM, Supplementary Figure S1) was “no specific binding process occurred”.

With “CGAGAG-NRQFRNCILQLFGKKVDDGSEVSTSRTEVSSVSNSSGS [LWO4, peptide representing the opsin C-terminus of European robin LWO]” the “binding to Gtα/Giα (qualitative)” value ([1]; peptide 100 nM) was “did not indicate a binding process”.

In the case of “dansyl-LWO2-sc: LWO2-sc with dansyl chloride coupled to free amino groups (CGAGAFRVKDGWINPGKFEVWCKF; cysteine pairing not given here; also: dansyl coupled to free amino groups)”, the “decrease of fluorescence emission in the presence of Gtα/Giα” value (Gtα/Giα chimera) is reported as 9,000 relative fluorescence counts and the fluorescence emission maximum (Gtα/Giα chimera) is reported as 516 nm.

With “dansyl-LWO2: LWO2 with dansyl chloride coupled to free amino groups (CGAGAWERWFVVCKPFGNIKFDGK-NH2; cysteine pairing not given here; also: dansyl coupled to free amino groups)” the “decrease of fluorescence emission in the presence of Gtα/Giα” value (Gtα/Giα chimera) was 14,000 relative fluorescence counts and the fluorescence emission maximum (Gtα/Giα chimera) was 510 nm.
